Source: PubChem BioAssay (NCI)
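Step 1: Grow cells in 96-well plates. Step 2: Expose to compound for 48 hours at 5 concentrations. Step 3: Interpolate endpoints linearly; if unreached, use highest concentration. Abbreviation: GI50, concentration required for 50% inhibition of growth. TGI marks complete inhibition of growth.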

Tests used:
Test in all cases: growth of human tumour cells (NCI), 48 h
[1] = tested on: LOX IMVI melanoma
[2] = tested on: OVCAR-4 ovarian
[3] = tested on: NCI-H460 lung
[4] = tested on: HCC-2998 colon
[5] = tested on: EKVX NSCLC
[6] = tested on: SK-MEL-2 melanoma
[7] = tested on: OVCAR-5 ovarian
[8] = tested on: RPMI-8226 leukemia
[9] = tested on: MDA-MB-435
[10] = tested on: MCF7 breast

SMILES | TGI [1] | TGI [2] | TGI [3] | TGI [4] | TGI [5] | TGI [6] | TGI [7] | TGI [8] | GI50 [1] | GI50 [2] | GI50 [3] | GI50 [4] | GI50 [5] | GI50 [6] | GI50 [7] | GI50 [9] | TGI [9] | GI50 [8] | GI50 [10] | TGI [10]
Nc1nc(Cl)cc(NCCCCCNc2cc(Cl)nc(N)n2)n1 | > 100 µM | > 100 µM | > 100 µM | > 100 µM | > 100 µM | > 100 µM | > 100 µM | > 100 µM | – | – | – | – | – | – | – | – | – | – | – | –
COCc1c(CO)cnc(C)c1OC1OC(CO)C(O)C(O)C1O (stereo unspecified) | > 100 µM | > 100 µM | > 100 µM | > 100 µM | > 100 µM | > 100 µM | > 100 µM | > 100 µM | – | – | – | – | – | – | – | – | – | – | – | –
c1ccc(N=c2snc3scc(-c4ccccc4)n23)cc1 | > 100 µM | > 100 µM | – | > 100 µM | > 100 µM | > 100 µM | > 100 µM | 86.7 µM | – | – | – | – | – | – | – | – | – | – | – | –
O=Cc1ccc(-c2ccc(-c3nc4ccccc4[nH]3)cc2)s1 | 64.6 µM | 96.1 µM | 29.7 µM | 81.3 µM | 87 µM | > 100 µM | > 100 µM | – | 21.8 µM | 33.8 µM | 13.1 µM | 29.3 µM | 24 µM | 42 µM | 37 µM | 26.4 µM | 69.2 µM | – | – | –
CCOC(=O)Cc1nc2ccccc2s1 | 32.4 µM | > 10 µM | 39.6 µM | > 100 µM | > 100 µM | 36.5 µM | 57 µM | – | – | – | – | – | – | – | – | – | – | – | – | –
CCOC(CCCNCCCn1c2c(c3cc(OC)c(OC)cc3c1=O)C(=O)c1cc3c(cc1-2)OCO3)OCC | 9.81 µM | 13.1 µM | 7.3 µM | – | – | 14.2 µM | 17.3 µM | 8.45 µM | 1.73 µM | 6.69 µM | 0.884 µM | – | – | 7.59 µM | 10.2 µM | 7.32 µM | 13.9 µM | 0.308 µM | 1.19 µM | 9.3 µM
CC(C)N(C(=O)C1(C)CC1)C(C)C | – | > 100 µM | – | > 100 µM | > 100 µM | > 100 µM | > 100 µM | > 100 µM | – | – | – | – | – | – | – | – | – | – | – | –
CC1=C(C(=O)Nc2ccccc2)C(c2ccc([N+](=O)[O-])cc2)C(C(=O)Nc2ccccc2)=C(C)N1 | 30.5 µM | – | 70.3 µM | 45.8 µM | 46.2 µM | 31.4 µM | > 100 µM | 73.3 µM | – | – | – | – | – | – | – | – | – | – | – | –
COc1cc(Br)c(CC2(C#N)c3ccccc3C3C(N2C(=O)c2ccccc2)C3(Cl)Cl)cc1OC (stereo unspecified) | > 65.5 µM | – | > 65.5 µM | > 65.5 µM | > 65.5 µM | > 65.5 µM | > 65.5 µM | > 65.5 µM | – | – | – | – | – | – | – | – | – | – | – | –
C[N+](C)(C)CC(=O)N/N=C(\CCC(=O)NCCc1ccccc1)CC(=O)c1ccccc1 | > 100 µM | > 100 µM | > 100 µM | > 100 µM | > 100 µM | > 100 µM | > 100 µM | > 100 µM | – | – | – | – | – | – | – | – | – | – | – | –
O=C(NCCc1ccccc1)C(c1ccccc1)(c1ccccc1)c1ccccc1 | – | > 100 µM | > 100 µM | – | 27.1 µM | 29.8 µM | 50.6 µM | > 100 µM | – | > 100 µM | 31.5 µM | – | 4.13 µM | 7.04 µM | 3.91 µM | 12.2 µM | 45.8 µM | 15.9 µM | 26 µM | > 100 µM
COc1cc2c(c(OC)c1O)-c1ccc(OC)c(=O)cc1[C@@H](NC(=O)C(F)(F)F)CC2 | > 100 µM | > 100 µM | – | 14.1 µM | > 100 µM | – | > 100 µM | 0.0699 µM | – | – | – | – | – | – | – | – | 0.055 µM | – | – | > 100 µM
O=C1OC(c2ccccc2)=N/C1=C\c1ccc2ccccc2c1 | > 100 µM | > 100 µM | > 100 µM | – | > 100 µM | > 100 µM | > 100 µM | > 100 µM | – | – | – | – | – | – | – | – | – | – | – | –
N.N.N.N.O=NN1CCCCCC1(P(=O)([O-])[O-])P(=O)([O-])[O-].[Pt+4].[Pt+4] | > 100 µM | > 100 µM | > 100 µM | > 100 µM | > 100 µM | > 100 µM | > 100 µM | > 100 µM | > 100 µM | > 100 µM | > 100 µM | > 100 µM | > 100 µM | 79.6 µM | > 100 µM | – | – | > 100 µM | – | –
COc1cc2c3c(c4ccc(OC)c(OC)c4c2cc1OC)CN1CCC[C@@H]1C3 | 0.384 µM | 1.42 µM | 2.09 µM | 1.78 µM | 0.378 µM | 0.237 µM | 17.1 µM | – | – | – | – | – | – | – | – | – | 5.83 µM | – | – | > 20.3 µM
COc1c2c3ccccc3nc-2n(C)c2ccccc12 | 26.3 µM | – | 32.1 µM | – | 57.2 µM | > 100 µM | > 100 µM | 24.4 µM | 4.73 µM | – | 6.26 µM | – | 13.7 µM | 36.8 µM | 8.43 µM | 13.9 µM | 38.3 µM | 6.04 µM | 4.31 µM | 33.1 µM
COC(=O)NC1(NC(=O)OC)NC(=O)c2cc(OC)c(OC)cc2N1 | > 100 µM | – | > 100 µM | – | > 100 µM | 67 µM | > 100 µM | > 100 µM | – | – | – | – | – | – | – | – | 13.7 µM | – | – | > 100 µM
CCN(CC)CC.CCOc1ccc(NC(=O)N=C=[N-])cc1.[CH-]1CCCCC1.[CH-]1CCCCC1.[CH-]1CCCCC1.[Cl-].[Sn+4] | 0.0483 µM | 0.139 µM | 0.575 µM | 0.0669 µM | 0.143 µM | 0.0964 µM | 0.114 µM | 0.064 µM | 0.0157 µM | 0.0446 µM | 0.0279 µM | 0.0255 µM | 0.043 µM | 0.0376 µM | 0.0427 µM | 0.0151 µM | 0.0296 µM | 0.0199 µM | – | –
CCN(CC)CCCC(C)Nc1cc(-c2ccc(C(F)(F)F)cc2)c(C#N)c2nc3ccccc3n12 (stereo unspecified) | – | 10.1 µM | 3.61 µM | 3.67 µM | 5.82 µM | 4.15 µM | 5.15 µM | 5.22 µM | – | 3.12 µM | 1.82 µM | 1.91 µM | 2.29 µM | 2.27 µM | 2.29 µM | 1.67 µM | 3.14 µM | 1.96 µM | 2.1 µM | 4.88 µM
